Values belong to the molecule of their own block, whether it stands above or below them. No end group written: not given here.
What was measured:
[1] = molecular target: FKBP12 (Homo sapiens, UniProt P62942); details: read-out: dissociation constants for FKBP12; cited from earlier work
[2] = molecular target: T1, p42 MAP kinase (Erk2) (Mus musculus, UniProt P63085); test: kinase substrate screen on BSA-NHS slides with 33P-γ-ATP, Erk2; format: biochemical; details: slide incubated with Erk2
T1 construct: purchased New England Biolabs (Beverly, Mass.)
T1 sequence (P63085 2-358 limits assumed): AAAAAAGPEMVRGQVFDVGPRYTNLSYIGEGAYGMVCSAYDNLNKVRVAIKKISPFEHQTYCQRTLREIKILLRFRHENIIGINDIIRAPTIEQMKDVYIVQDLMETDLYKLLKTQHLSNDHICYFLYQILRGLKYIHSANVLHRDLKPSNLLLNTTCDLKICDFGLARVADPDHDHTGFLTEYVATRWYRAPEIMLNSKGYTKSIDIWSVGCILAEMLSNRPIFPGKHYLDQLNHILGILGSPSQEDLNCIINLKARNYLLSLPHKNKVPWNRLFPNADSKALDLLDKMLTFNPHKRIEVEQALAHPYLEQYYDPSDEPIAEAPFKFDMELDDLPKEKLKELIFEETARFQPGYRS
Protocol: (§1) To give but one example, most signal transduction networks are composed of numerous kinases and the proteins that they phosphorylate. Protein microarrays offer an ideal system for the rapid and parallel identification of the substrates of protein kinases. A microarray of proteins can be incubated with a purified kinase in the presence of ATP, and the substrates identified by detecting their phosphorylation. In but one exemplary system, three different kinase/substrate pairs were chosen: cAMP-dependent protein kinase (PKA) and “Kemptide” (a peptide substrate for PKA) (Kemp et al. J. Biol. Chem. 252:4888-4894, 1977; incorporated herein by reference); casein kinase II (CKII) and protein phosphatase inhibitor 2 (I-2) (DePaoli-Roach J. Biol. Chem. 259:12144-12152, 1984; incorporated herein by reference); and p42 MAP kinase (Erk2) and Elk1 (Marais et al. Cell 73:381-393, 1993; incorporated herein by reference). […] Following a three-hour incubation, each slide was quenched with glycine and incubated with a different kinase in the presence of ^33P-γ-ATP (FIG. 3). […]
(§2) The slide in FIG. 3A was incubated with PKA. […] Since isotopic […] is known to be quantitative, the best substrates in a library of peptides can be readily identified. […]
(§3) For FIG. 3, the proteins were spotted on BSA-NHS slides using a GMS 417 Arrayer. […] The slides were then ready for further processing (see below). […]

[3] = tested on: 5-helix (portion of the HIV protein gp41); details: rank among the three peptides; cited from earlier work
[4] = molecular target: T2, cAMP-dependent protein kinase (PKA) (Mus musculus, UniProt P05132); test: kinase substrate screen on BSA-NHS slides with 33P-γ-ATP, PKA; format: biochemical; details: slide incubated with PKA
T2 construct: purchased New England Biolabs (Beverly, Mass.)
Protocol: as §1, §2, §3

[5] = molecular target: T3, casein kinase II (CKII) (Homo sapiens, UniProt P68400); test: kinase substrate screen on BSA-NHS slides with 33P-γ-ATP, CKII; format: biochemical; details: slide incubated with CKII
T3 construct: purchased New England Biolabs (Beverly, Mass.)
T3 sequence (P68400 whole entry): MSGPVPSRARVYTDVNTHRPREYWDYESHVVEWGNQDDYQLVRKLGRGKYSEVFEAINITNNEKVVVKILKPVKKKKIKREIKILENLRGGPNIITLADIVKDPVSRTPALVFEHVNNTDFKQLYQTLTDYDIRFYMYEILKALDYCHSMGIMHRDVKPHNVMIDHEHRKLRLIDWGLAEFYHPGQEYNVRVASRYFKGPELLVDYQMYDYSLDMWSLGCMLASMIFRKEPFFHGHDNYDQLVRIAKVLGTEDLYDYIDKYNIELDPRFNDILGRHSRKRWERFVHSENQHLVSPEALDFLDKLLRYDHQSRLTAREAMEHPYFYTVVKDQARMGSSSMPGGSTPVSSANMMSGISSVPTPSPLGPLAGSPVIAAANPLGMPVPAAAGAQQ
T3 sequence (P67870 whole entry partner): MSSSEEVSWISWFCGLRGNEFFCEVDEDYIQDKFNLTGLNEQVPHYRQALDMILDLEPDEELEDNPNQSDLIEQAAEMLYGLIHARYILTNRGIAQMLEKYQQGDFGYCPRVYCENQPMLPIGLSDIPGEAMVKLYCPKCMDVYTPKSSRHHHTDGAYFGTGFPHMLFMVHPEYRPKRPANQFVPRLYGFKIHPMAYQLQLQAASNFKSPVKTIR
Protocol: as §1, §2, §3

[6] = molecular target: T4, p50 (of the NFκB complex) (Homo sapiens, UniProt P19838); test: protein microarray: protein-protein interaction, p50 spots; format: binding; details: probe 0.1 μg/ml
T4 construct: p50 (of the NFκB complex) and IκBα
T4 sequence (P19838 1-433 limits assumed): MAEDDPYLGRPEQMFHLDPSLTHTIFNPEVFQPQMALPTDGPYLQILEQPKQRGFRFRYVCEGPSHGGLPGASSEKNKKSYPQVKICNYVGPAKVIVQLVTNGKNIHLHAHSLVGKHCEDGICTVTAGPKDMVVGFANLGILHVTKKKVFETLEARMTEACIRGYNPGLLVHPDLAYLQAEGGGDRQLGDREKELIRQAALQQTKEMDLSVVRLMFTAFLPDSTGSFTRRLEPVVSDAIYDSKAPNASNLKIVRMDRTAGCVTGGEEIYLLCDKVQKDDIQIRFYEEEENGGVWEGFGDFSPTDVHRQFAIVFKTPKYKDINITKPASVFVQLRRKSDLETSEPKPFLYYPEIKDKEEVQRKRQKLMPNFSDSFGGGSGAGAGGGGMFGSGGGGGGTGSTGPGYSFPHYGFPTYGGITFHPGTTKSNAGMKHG
From the text: Arraying Proteins on Glass Slides.
Screening for Protein-Protein Interactions.

FKBP12, sequence (P62942 whole entry): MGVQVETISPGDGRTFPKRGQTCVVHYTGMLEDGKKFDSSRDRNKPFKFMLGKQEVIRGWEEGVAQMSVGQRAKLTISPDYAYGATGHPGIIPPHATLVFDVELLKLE

Molecule: COc1ccc(CC[C@@H](OC(=O)[C@@H]2CCCCN2C(=O)Cc2ccccc2)c2cccc(OCC(=O)O)c2)cc1OC [Compound 3c]
Kd [1]: 2.6 µM

Molecule: GGHTTWMEADREINNYTSLIHSLIEESQNQQEKNEQELL [JN-DCC2, peptide ligand for 5-helix]
relative affinity for 5-helix [3]: lowest affinity

Molecule: GGHTTWMELDREINNYTSLIHSLIEESQNQQEKNEQELL [JN-DCC1, peptide ligand for 5-helix]
relative affinity for 5-helix [3]: second highest affinity

Molecule: GGHTTWMEWDREINNYTSLIHSLIEESQNQQEKNEQELLGGHHHHHH [Compound C37-H6, peptide ligand for 5-helix]
relative affinity for 5-helix [3]: highest affinity

Second part, the molecule after the results:

phosphorylation of spotted substrate [2]: phosphorylated
Molecule: Elk1: protein substrate of p42 MAP kinase (Erk2)

phosphorylation of spotted substrate [4]: phosphorylated
Molecule: LRRASLG [Kemptide]

phosphorylation of spotted substrate [5]: phosphorylated
B1: I-2: protein phosphatase inhibitor 2, substrate of casein kinase II (protein, UniProt P41236 2-205, looked up)
Protein phosphatase inhibitor …: AASTASHRPIKGILKNKTSTTSSMVASAEQPRGNVDEELSKKSQKWDEMNILATYHPADKDYGLMKIDEPSTPYHSMMGDDEDACSDTEATEAMAPDILARKLAAAEGLEPKYRIQEQESSGEEDSDLSPEEREKKRQFEMKRKLHYNEGLNIKLARQLISKDLHDDDEDEEMLETADGESMNTEESNQGSTPSDQQQNKLRSS

localization of Cy3 fluorescence on array of protein G, p50 and GST-FRB [6]: localized to the p50-containing spots
B2: Cy3-conjugated IκBα: IκBα labeled with Cy3 (protein, UniProt P25963 1-317, looked up)
NF-kappa-B inhibitor alpha: MFQAAERPQEWAMEGPRDGLKKERLLDDRHDSGLDSMKDEEYEQMVKELQEIRLEPQEVPRGSEPWKQQLTEDGDSFLHLAIIHEEKALTMEVIRQVKGDLAFLNFQNNLQQTPLHLAVITNQPEIAEALLGAGCDPELRDFRGNTPLHLACEQGCLASVGVLTQSCTTPHLHSILKATNYNGHTCLHLASIHGYLGIVELLVSLGADVNAQEPCNGRTALHLAVDLQNPDLVSLLLKCGADVNRVTYQGYSPYQLTWGRPSTRIQQQLGQLTLENLQMLPESEDEESYDTESEFTEFTEDELPYDDCVFGGQRLTL
modifications: Cy3 label

From patent US20040038428A1, “Protein microarrays” (priority 2000, published 2004)
